We go through one compound from patent US20070093460A1, “Methods of using selective 11beta-HSD inhibitors to treat gluocorticoid associated states” (priority 2005, published 2007).

Assay [1] relates to normotensive SD rats. Particulars: infused into normotensive SD rats; cited from earlier work.
The target in assay [2] is 11β-HSD1 Dehydrogenase (Rattus norvegicus, UniProt P16232). The assay can be described thus: 11β-HSD1 dehydrogenase assay in rat Leydig cell homogenates.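 Also: tritiated corticosterone conversion by 11β-HSD1 dehydrogenase in Leydig homogenates with 3 mM NADP at pH 8.4, 37 °C for 10 min, products resolved by HPLC, inhibition relative to uninhibited enzyme.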 Type of assay: biochemical. Also noted: Freshly prepared rat Leydig cell homogenates were chosen since they provide a rich and reliable source of both 11β-HSD1 dehydrogenase and reductase; from tissue; host or cells: rat testicular Leydig cells, homogenate.
Chain of 11β-HSD1 Dehydrogenase (P16232 whole entry): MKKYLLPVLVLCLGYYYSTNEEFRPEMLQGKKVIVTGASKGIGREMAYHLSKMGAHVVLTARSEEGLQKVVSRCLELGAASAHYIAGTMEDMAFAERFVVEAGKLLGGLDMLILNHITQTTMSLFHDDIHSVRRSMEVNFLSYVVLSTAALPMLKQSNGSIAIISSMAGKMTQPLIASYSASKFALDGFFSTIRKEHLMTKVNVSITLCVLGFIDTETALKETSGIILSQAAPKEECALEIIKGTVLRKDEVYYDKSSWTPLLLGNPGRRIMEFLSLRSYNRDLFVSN
Description: (§1) Each enzyme reaction (described below) was stopped by adding 750 μL MeOH. After centrifugation, an aliquot of supernatant was analyzed by HPLC using a DuPont Zorbax C8 column.
(§2) 11β-HSD1 dehydrogenase was assayed by incubating homogenates (13,000 cells equivalent) with 600 nM [^3H]-B (0.5 μCi) in the presence of 3 mM NADP, 50 mM Tris-HCl; pH 8.4 at 37° C. for 10 minutes in a total volume of 250 μL. 11β-HSD1 reductase was assayed by incubating homogenates (52,000 cells equivalent) with 600 nM [^3H]-11-dehydro-corticosterone in presence of 3 mM NADPH, 50 mM Tris-HCl; pH 7.4 at 37° C. for 20 minutes in a total volume of 250 μL.
(§3) Each concentration was tested in triplicate and the dose response curve, showing percentage inhibition versus log concentration of steroid was plotted. The data fitted a log-linear straight line.

Assay [3] deals with 11β-HSD1 Reductase (Rattus norvegicus, UniProt P16232). The assay can be described thus: 11β-HSD1 reductase assay in rat Leydig cell homogenates.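 Also: rat Leydig cell homogenate incubated 20 min at 37 °C, pH 7.4, with tritiated 11-dehydro-corticosterone and 3 mM NADPH, product measured by HPLC, inhibition from triplicate dose–response curves.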 Particulars: read-out: Leydig Cell 11β-HSD1 Reductase [S] = 600 nM; rat Leydig cell homogenates, 600 nM 11-dehydro-corticosterone; progesterone and androgen derivatives.
Chain of 11β-HSD1 Reductase (P16232 whole entry): as above
Description: as §1, §2, §3
Assay [4] deals with T1, 11β-HSD2 (Ovis aries, UniProt P50168).
T1 construct: incubating sheep kidney microsomal fraction (6.5 μg protein) with 50 nM corticosterone; from tissue; host or cells: sheep kidney microsomal fraction
T1 sequence (P50168 1-427): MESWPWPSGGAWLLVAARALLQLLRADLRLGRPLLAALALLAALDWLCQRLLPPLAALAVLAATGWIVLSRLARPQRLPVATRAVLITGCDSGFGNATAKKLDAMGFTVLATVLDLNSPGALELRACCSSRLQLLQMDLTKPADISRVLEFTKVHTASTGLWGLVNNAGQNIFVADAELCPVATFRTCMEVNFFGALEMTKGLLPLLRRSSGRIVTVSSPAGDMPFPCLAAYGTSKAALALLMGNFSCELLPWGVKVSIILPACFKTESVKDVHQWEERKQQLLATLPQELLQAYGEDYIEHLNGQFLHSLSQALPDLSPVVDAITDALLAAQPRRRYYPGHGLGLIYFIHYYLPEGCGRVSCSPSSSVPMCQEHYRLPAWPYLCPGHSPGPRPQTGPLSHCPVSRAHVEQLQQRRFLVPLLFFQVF
Nature of the assay: 11β-HSD2 enzyme activity in sheep kidney microsomes. Type of assay: biochemical. The source says: The enzymatic reaction was termninated by addition of methanol and synthesis of 11-dehydro-corticosterone was quantitated by HPLC as described above.

pIC50: −log10 of the molar value. “Also recorded” adds a separate entry of the source.

Consider `CC(=O)[C@H]1CC[C@H]2[C@@H]3CC[C@H]4C[C@H](O)CC[C@]4(C)[C@H]3[C@@H](O)C[C@]12C` [11β-OH-allopregnanolone, 5α-Pregnan-3α,11β-diol-2O-one], for which, in assay [1], the blood pressure entry is given as “increased BP”. In addition, the pIC50 in assay [2] (rat Leydig cell homogenates, 600 nM corticosterone, progesterone and androgen derivatives, read-out: Leydig Cell 11β-HSDl Dehydrogenase [S] = 600 nM) was 5.52; in assay [3], < 4.00; in assay [4] (sheep kidney microsomes, corticosterone substrate, progesterone and androgen derivatives, read-out: Sheep kidney 11β-HSD2 [S] = 50 nM), 6.92. Further, the “inhibitors of 11β-HSD1 dehydrogenase (summary in words)” value in assay [2] (summary of the screening) is listed as “potent inhibitors; also recorded: high potency”. Besides, the “inhibitors of 11β-HSD2 (summary in words)” value in assay [4] (summary of the screening) is on record as “potent inhibitors; also recorded: high potency”.
